# Like-named read-outs stand apart in the source and are kept apart here.
# Columns and labels:
# ETB receptor = conditions: read-out: K1 of ET-1/ETB binding affinity; cited from earlier work
# [1] = system: unilateral ischemic renal injury; test: unilateral ischemia/reperfusion (I/R) injury protocol, renal weight two weeks post ischemia; assay type: in vivo, CD-1 mice
# Protocol: (§1) All experiments were performed using male 30-45 gram CD-1 mice, obtained from Charles River Laboratories, Wilmington, Mass. They were housed under routine vivarium conditions with free food and water access. Surgeries were conducted under deep pentobarbital anesthesia (40-50 mg/Kg IP). Post surgical analgesia was provided with buprenorphine (0.1 mg/Kg IP) at the completion of surgery. All procedures were approved by the institution's IACUC, in accordance with NIH guidelines.
# In this example, ET-1 and ETA/ETB receptor expression were quantified following ischemic renal injury, and ET-1 gene chromatin remodeling and RNA polymerase II (Pol II) binding were evaluated. Ten mice were subjected to a midline laparotomy, and the left renal pedicles were exposed and occluded ×30 min using atraumatic microvascular clamps. Uniform ischemia was confirmed by the development of total kidney cyanosis (indicating hypoxia). Body temperature was monitored with an intra-abdominal thermometer and maintained at 37° C. with an external heating source. At the completion of the ischemic period, the vascular clamp was removed, and uniform reperfusion was confirmed by loss of kidney cyanosis. The abdominal incision was then sutured in two layers using 3-0 chromic suture. The mice were then allowed to recover from anesthesia. Ten additional mice, subjected to the same surgical procedure, but not to renal pedicle occlusion, served as sham-operated controls.
# This example studied whether atrasentan treatment, during pre- and post-ischemic period, confers renal protection. Eighteen mice were subjected to a unilateral ischemia/reperfusion (I/R) protocol as described in Example 1. […] Atrasentan was administered in the drinking water (25 μg/mL; designed to equate with a dose of ˜5 mg/Kg/day). Atrasentan dosing was started one day before surgery, and continued throughout the remainder of the experiment. Fresh atrasentan was provided ˜2-3× per week for two weeks. The remaining nine mice received only free food and water access, serving as controls.
# The degree of post-ischemic loss of renal mass was assessed by comparing the weights of kidneys from sham operated mice, control post-ischemic mice, and post ischemic mice that had received atrasentan treatment. Finally, frontal sections of post-ischemic kidneys were taken from five control mice and five atrasentan-treated mice, fixed in 10% buffered formalin, and used for subsequent histochemical analyses.
# This example studies whether atrasentan treatment, restricted to the post-ischemic period, confers renal protection. This experiment was designed to help resolve the issue of when atrasentan was inducing its protective effect. To this end, the same protocol described in Example 2 was repeated, but atrasentan administration was commenced 24 hours after the induction of ischemic damage). At the end of two weeks, the mice were re-anesthetized and the left and right kidneys were weighed. The degree of post ischemic renal weight reduction (the primary endpoint of the above described experiment) was determined. […]
# This example studies the potential effects of atrasentan on renal growth independent of ischemic injury. To ascertain whether atrasentan treatment might impact renal growth or size independent of an effect on renal ischemia/post ischemic injury, renal weights of the contralateral (non ischemic) kidneys from the Example 2 were assessed and compared to ischemic kidneys with and without treatment with atrasentan. […]
# [2] = system: proximal tubule (HK-2) cells
# Protocol: After eighteen hours of incubation, lethal cell injury was assessed by % LDH release.
# [3] = system: bilateral ischemic renal injury; test: bilateral ischemic renal injury, severity at 24 hours post ischemia; assay type: in vivo, CD-1 mice; conditions: 22.5 min or 25 min bilateral ischemia
# Protocol: as §1
# This example studies whether atrasentan pre-treatment protects against the acute ischemic injury phase. More particularly, the possibility that atrasentan might mitigate the acute injury phase, and thus, cause a subsequent preservation of renal mass, was explored by subjecting mice to either 22.5 minutes or 25 minutes of bilateral ischemic renal injury in the presence or absence of atrasentan pre-treatment for 24 hours before and for 24 hours after the induction of renal ischemia. […]
# The severity of injury was assessed at 24 hours post ischemia by BUN and plasma creatinine concentrations. […] As a second marker of renal injury, renal cortical NGAL mRNA levels were also assessed. Measurement of NGAL mRNA represents a more sensitive biomarker of kidney injury than BUN and Plasma Creatinine measured in FIG. 8 and was measured to investigate the effect of atrasentan on the induction phase of ischemic injury.
# post ischemic kidneys = test: renal histology (H and E injury score, KI-67 staining) of two week post ischemic kidneys; assay type: in vivo, CD-1 mice; conditions: pre+post atrasentan
# Protocol: Calculations and Statistics: All values are presented as means±1 SEM. Statistical comparisons were performed by unpaired Student's t test. The mRNA data were generated by competitive RT-PCR, with the results for any given message being expressed as a ratio to the simultaneously determined GAPDH product, used as a housekeeping gene. ChIP data, generated with real time PCR (qPCR) are presented as ng/mg total applied chromatin. The severity of histologic injury, as determined by studying H and E stained kidney sections, was assessed by blinded scoring of slides of 2 week post ischemic kidneys from 5 Atrasentan treated (24 hrs pre-ischemia, and 2 weeks post-ischemia) mice, and from 5 non Atrasentan treated post ischemic controls. […]
# This example examined renal histology on kidneys from five control mice and five atrasentan-treated mice from Example 2. […] In addition, renal tubular cell proliferation was assessed by immunohistochemical staining for KI-67, a nuclear protein marker of all active cell cycle phases (G1, S, G2, mitosis; but not Go). (Scholzen T, et al., The Ki-67 protein: from the known and the unknown. J Cell Physiol. 182: 311-322, 2000.) The percent of KI-67 cells was determined on whole kidney sections, captured with ScanScope AT (Aperio, Vista, Calif.), and then analyzed with Nuclear Algorithm Spectrum software (version 11.1.1.764; Aperio).
compound,measurement,setting,value
"CCCC[C@@H](NC(=O)[C@@H](Cc1cn(C(=O)OC)c2ccccc12)NC(=O)[C@H](CC(C)(C)C)NC(=O)N1[C@H](C)CCC[C@@H]1C)C(=O)[O-].[Na+] [BQ-788, N-cis-2,6-dimethylpiperidinocarbonyl-L-gamma-methylleucyl-D-1-methoxycarbonyltryptophanyl-D-norleucine]",Ki,ETB receptor,100 nM
same,effect on renal parameters measured,[1]; BQ-788 administered both pre- and post-ischemia,no effect on any of the renal parameters measured
same,post ischemic kidney weight,"[1]; BQ-788 subcutaneously each day from 1 day before surgery, two weeks post ischemia, control ischemia 0.23 grams",0.24 grams
"CCCCN(CCCC)C(=O)CN1C[C@H](c2ccc3c(c2)OCO3)[C@@H](C(=O)O)[C@@H]1c1ccc(OC)cc1 [atrasentan, (2R,3R,4S)-4-(1,3-benzodioxol-5-yl)-1-[2-(dibutylamino)-2-oxoethyl]-2-(4-methoxyphenyl)pyrrolidine-3-carboxylic acid]",post ischemic loss of renal mass (renal weight),"[1]; atrasentan commenced 24 hours after induction of ischemic damage, two weeks",completely blocked this loss of renal mass
same,post ischemic kidney weight (renal mass),"[1]; atrasentan in drinking water ~5 mg/Kg/day, started one day before 30 min unilateral ischemia and continued two weeks post ischemia, vs normal kidneys",did not significantly differ from that of normal kidneys
same,"contralateral (non ischemic) kidney weight, hypertrophic response","[1]; pre+post atrasentan, two weeks, drug vs. no-drug groups",no effect on this hypertrophic response
same,LDH release,"[2]; CAD (antimycin A/Ca ionophore/2-deoxyglucose) + 5 μg atrasentan, 18 hours, CAD alone 22.8±0.2%",23.2±0.3%
same,LDH release,"[2]; human, 18 h, 5 μg/mL",9.0±0.1%
same,severity of AKI by BUN and plasma creatinine concentrations,"[3]; atrasentan 24 hours before and 24 hours after, assessed 24 hours post ischemia",failed to mitigate the severity of AKI
same,renal cortical NGAL mRNA levels,"[3]; atrasentan 24 hours before and after, 24 hours post ischemia",in neither instance did atrasentan decrease these NGAL mRNA increases
same,% KI-67 nuclear positivity,"post ischemic kidneys; two week post ischemic kidney, control ischemia 11.4±0.8%, normal kidneys 2.4±0.6%",10.8±1.2%
same,"histologic injury score (semiquantitative 1+ to 4+, least to most severe)","post ischemic kidneys; two weeks post ischemia, control ischemia 3.4±0.3, p<0.01, mean±SEM",1.7±0.4

# — US20160015701A1, “Methods of Treating Acute Kidney Injury” (ABBIVE INC., priority 2013, published 2016)
